Assay results from article PMC11033320, “Activation of p53 signaling and regression of breast and prostate carcinoma cells by spirooxindole-benzimidazole small molecules” (Frontiers in Pharmacology, 2024).

What was measured:
[1] = tested on: PC-3 cells; assay: MTT assay anticancer activity, PC-3; assay type: cell-based; conditions: Homo sapiens, PC-3, 5 µM, mean ± SEM, read-out: growth inhibition percentage of PC-3
Source text: MTT method was done as described above.

[2] = tested on: CCRF-CEM; assay: NCI anticancer screening, Leukemia CCRF-CEM; assay type: cell-based; conditions: Homo sapiens, read-out: % Growth Inhibition (GI %)
Source text: (§1) The compound has been processed according to standard method NCI-60 Human Tumor Cell Lines Screen for organic compound at development therapeutic program (DTP). Requests for access to this national resource can be submitted online at: […]

[3] = tested on: K-562; assay: NCI anticancer screening, Leukemia K-562; assay type: cell-based; conditions: Homo sapiens, K562; K-562, 10 μM; read-out: % Growth Inhibition (GI %)
Source text: as §1

[4] = tested on: MOLT-4; assay: NCI anticancer screening, Leukemia MOLT-4; assay type: cell-based; conditions: Homo sapiens; MOLT-4, 10 μM; read-out: % Growth Inhibition (GI %)
Source text: as §1

[5] = tested on: RPMI-8226; assay: NCI anticancer screening, Leukemia RPMI-8226; assay type: cell-based; conditions: Homo sapiens; RPMI-8226, 10 μM; read-out: % Growth Inhibition (GI %)
Source text: as §1

[6] = tested on: SR; assay: NCI anticancer screening, Leukemia SR; assay type: cell-based; conditions: Homo sapiens, read-out: % Growth Inhibition (GI %)
Source text: as §1

[7] = tested on: EKVX; assay: NCI anticancer screening, Non-Small Cell Lung Cancer EKVX; assay type: cell-based; conditions: Homo sapiens, read-out: % Growth Inhibition (GI %)
Source text: as §1

[8] = tested on: HOP-62; assay: NCI anticancer screening, Non-Small Cell Lung Cancer HOP-62; assay type: cell-based; conditions: Homo sapiens; HOP-62, 10 μM; read-out: % Growth Inhibition (GI %)
Source text: as §1

[9] = tested on: HOP-92; assay: NCI anticancer screening, Non-Small Cell Lung Cancer HOP-92; assay type: cell-based; conditions: Homo sapiens; HOP-92, 10 μM; read-out: % Growth Inhibition (GI %)
Source text: as §1

[10] = tested on: NCI-H460; assay: NCI anticancer screening, Non-Small Cell Lung Cancer NCI-H460; assay type: cell-based; conditions: Homo sapiens; NCI-H460, 10 μM; read-out: % Growth Inhibition (GI %)
Source text: as §1

[11] = tested on: HCC-2998; assay: NCI anticancer screening, Colon Cancer HCC-2998; assay type: cell-based; conditions: Homo sapiens; HCC-2998, 10 μM; read-out: % Growth Inhibition (GI %)
Source text: as §1

[12] = tested on: HCT-116; assay: NCI anticancer screening, Colon Cancer HCT-116; assay type: cell-based; conditions: Homo sapiens; HCT-116, 10 μM; read-out: % Growth Inhibition (GI %)
Source text: as §1

[13] = tested on: SW-620; assay: NCI anticancer screening, Colon Cancer SW-620; assay type: cell-based; conditions: Homo sapiens; SW-620, 10 μM; read-out: % Growth Inhibition (GI %)
Source text: as §1

[14] = tested on: SF-268; assay: NCI anticancer screening, CNS Cancer SF-268; assay type: cell-based; conditions: Homo sapiens; SF-268, 10 μM; read-out: % Growth Inhibition (GI %)
Source text: as §1

[15] = tested on: SNB-19; assay: NCI anticancer screening, CNS Cancer SNB-19; assay type: cell-based; conditions: Homo sapiens; SNB-19, 10 μM; read-out: % Growth Inhibition (GI %)
Source text: as §1

[16] = tested on: SNB-75; assay: NCI anticancer screening, CNS Cancer SNB-75; assay type: cell-based; conditions: Homo sapiens; SNB-75, 10 μM; read-out: % Growth Inhibition (GI %)
Source text: as §1

[17] = tested on: MALME-3M; assay: NCI anticancer screening, Melanoma MALME-3M; assay type: cell-based; conditions: Homo sapiens, read-out: % Growth Inhibition (GI %)
Source text: as §1

[18] = tested on: M14; assay: NCI anticancer screening, Melanoma M14; assay type: cell-based; conditions: Homo sapiens; M14, 10 μM; read-out: % Growth Inhibition (GI %)
Source text: as §1

[19] = tested on: MDA-MB-435; assay: NCI anticancer screening, Melanoma MDA-MB-435; assay type: cell-based; conditions: Homo sapiens; MDA-MB-435, 10 μM; read-out: % Growth Inhibition (GI %)
Source text: as §1

[20] = tested on: SK-MEL-2; assay: NCI anticancer screening, Melanoma SK-MEL-2; assay type: cell-based; conditions: Homo sapiens; SK-MEL-2, 10 μM; read-out: % Growth Inhibition (GI %)
Source text: as §1

[21] = tested on: SK-MEL-28; assay: NCI anticancer screening, Melanoma SK-MEL-28; assay type: cell-based; conditions: Homo sapiens; SK-MEL-28, 10 μM; read-out: % Growth Inhibition (GI %)
Source text: as §1

[22] = tested on: UACC-257; assay: NCI anticancer screening, Melanoma UACC-257; assay type: cell-based; conditions: Homo sapiens; UACC-257, 10 μM; read-out: % Growth Inhibition (GI %)
Source text: as §1

[23] = tested on: IGROV1; assay: NCI anticancer screening, Ovarian Cancer IGROV1; assay type: cell-based; conditions: Homo sapiens, IGROV-1; IGROV1, 10 μM; read-out: % Growth Inhibition (GI %)
Source text: as §1

[24] = tested on: OVCAR-4; assay: NCI anticancer screening, Ovarian Cancer OVCAR-4; assay type: cell-based; conditions: Homo sapiens; OVCAR-4, 10 μM; read-out: % Growth Inhibition (GI %)
Source text: as §1

[25] = tested on: OVCAR-5; assay: NCI anticancer screening, Ovarian Cancer OVCAR-5; assay type: cell-based; conditions: Homo sapiens; OVCAR-5, 10 μM; read-out: % Growth Inhibition (GI %)
Source text: as §1

[26] = tested on: OVCAR-8; assay: NCI anticancer screening, Ovarian Cancer OVCAR-8; assay type: cell-based; conditions: Homo sapiens; OVCAR-8, 10 μM; read-out: % Growth Inhibition (GI %)
Source text: as §1

[27] = tested on: NCI/ADR-RES; assay: NCI anticancer screening, Ovarian Cancer NCI/ADR-RES; assay type: cell-based; conditions: Homo sapiens, read-out: % Growth Inhibition (GI %)
Source text: as §1

[28] = tested on: 786-0; assay: NCI anticancer screening, Renal Cancer 786-0; assay type: cell-based; conditions: Homo sapiens; 786-0, 10 μM; read-out: % Growth Inhibition (GI %)
Source text: as §1

[29] = tested on: ACHN; assay: NCI anticancer screening, Renal Cancer ACHN; assay type: cell-based; conditions: Homo sapiens, read-out: % Growth Inhibition (GI %)
Source text: as §1

[30] = tested on: CAKI-1; assay: NCI anticancer screening, Renal Cancer CAKI-1; assay type: cell-based; conditions: Homo sapiens; CAKI-1, 10 μM; read-out: % Growth Inhibition (GI %)
Source text: as §1

[31] = tested on: RXF 393; assay: NCI anticancer screening, Renal Cancer RXF 393; assay type: cell-based; conditions: Homo sapiens; RXF 393, 10 μM; read-out: % Growth Inhibition (GI %)
Source text: as §1

[32] = tested on: TK-10; assay: NCI anticancer screening, Renal Cancer TK-10; assay type: cell-based; conditions: Homo sapiens; TK-10, 10 μM; read-out: % Growth Inhibition (GI %)
Source text: as §1

[33] = tested on: UO-31; assay: NCI anticancer screening, Renal Cancer UO-31; assay type: cell-based; conditions: Homo sapiens; UO-31, 10 μM; read-out: % Growth Inhibition (GI %)
Source text: as §1

[34] = tested on: DU-145; assay: NCI anticancer screening, DU-145; assay type: cell-based; conditions: Homo sapiens; DU-145, 10 μM; read-out: % Growth Inhibition (GI %)
Source text: as §1

[35] = tested on: BT-549; assay: NCI anticancer screening, Breast Cancer BT-549; assay type: cell-based; conditions: Homo sapiens; BT-549, 10 μM; read-out: % Growth Inhibition (GI %)
Source text: as §1

[36] = tested on: MDA-MB 231 cells; conditions: for inhibition: 5 µM
Method: Anticancer effect of the above-mentioned compounds was assayed using three human cancer cell lines. Triple negative breast cancer cell line (MDA-MB 231) and prostate cancer cell line (PC3) were cultured in DMEM (Lonza, USA) supplemented with 10% FBS. All cancer cells (4x10^3 cells/well) were seeded in sterile 96-well plates. After 24h, serial concentrations of the tested compounds were incubated with three cancer cell lines for 72 h at 37 °C in 5% CO2 incubator. […] The half maximal inhibitory concentration (IC50) values were calculated using the Graphpad Instat software.

## O=C(c1nc2ccccc2[nH]1)[C@H]1[C@H](c2ccco2)C2CSCN2[C@]12C(=O)Nc1ccccc12 (stereo partly drawn) [Compound 6n, (3S,6′R)-6'-(1H-Benzo [d]imidazole-2-carbonyl)-7'-(furan-2-yl)-3′,6′,7′,7a′-tetrahydro-1′H-spiro [indoline-3.5′-pyrrolo [1,2-c]thiazol]-2-one]
[1]
  inhibition at 5 µM: 52.5 ± 1.46%
[2]
  inhibition at 10 µM: 110%
[3]
  inhibition at 10 µM: 89.8%
[4]
  inhibition at 10 µM: 96.8%
[5]
  inhibition at 10 µM: 101%
[6]
  inhibition at 10 µM: 86.8%
[7]
  inhibition at 10 µM: 103%
[8]
  inhibition at 10 µM: 99.8%
[9]
  inhibition at 10 µM: 113%
[10]
  inhibition at 10 µM: 102%
[11]
  inhibition at 10 µM: 104%
[12]
  inhibition at 10 µM: 98.6%
[13]
  inhibition at 10 µM: 95.6%
[14]
  inhibition at 10 µM: 102%
[15]
  inhibition at 10 µM: 96.8%
[16]
  inhibition at 10 µM: 96%
[17]
  inhibition at 10 µM: 102%
[18]
  inhibition at 10 µM: 101%
[19]
  inhibition at 10 µM: 105%
[20]
  inhibition at 10 µM: 124%
[21]
  inhibition at 10 µM: 107%
[22]
  inhibition at 10 µM: 116%
[23]
  inhibition at 10 µM: 92.4%
[24]
  inhibition at 10 µM: 99.2%
[25]
  inhibition at 10 µM: 97.2%
[26]
  inhibition at 10 µM: 101%
[27]
  inhibition at 10 µM: 101%
[28]
  inhibition at 10 µM: 104%
[29]
  inhibition at 10 µM: 93.7%
[30]
  inhibition at 10 µM: 88.5%
[31]
  inhibition at 10 µM: 104%
[32]
  inhibition at 10 µM: 133%
[33]
  inhibition at 10 µM: 61.7%
[34]
  inhibition at 10 µM: 114%
[35]
  inhibition at 10 µM: 110%
[36]
  IC50: 6.14 ± 0.246 µM
  inhibition: 52.9 ± 2.5%

## COc1cc([C@@H]2C3CSCN3[C@]3(C(=O)Nc4ccccc43)[C@H]2C(=O)c2nc3ccccc3[nH]2)cc(OC)c1OC (stereo partly drawn) [Compound 6i, (3S,6′R)-6'-(1H-Benzo [d]imidazole-2-carbonyl)-7'-(3,4,5-trimethoxyphenyl)-3′,6′,7′,7a′-tetrahydro-1′H-spiro [indoline-3.5′-pyrrolo [1,2-c]thiazol]-2-one]
[1]
  inhibition at 5 µM: 49.8 ± 3.12%
[2]
  inhibition at 10 µM: 104%
[3]
  inhibition at 10 µM: 94.2%
[4]
  inhibition at 10 µM: 97.4%
[5]
  inhibition at 10 µM: 108%
[6]
  inhibition at 10 µM: 91.8%
[7]
  inhibition at 10 µM: 100%
[8]
  inhibition at 10 µM: 104%
[9]
  inhibition at 10 µM: 106%
[10]
  inhibition at 10 µM: 105%
[11]
  inhibition at 10 µM: 108%
[12]
  inhibition at 10 µM: 102%
[13]
  inhibition at 10 µM: 99.5%
[14]
  inhibition at 10 µM: 99.2%
[15]
  inhibition at 10 µM: 100%
[16]
  inhibition at 10 µM: 94.1%
[17]
  inhibition at 10 µM: 99.8%
[18]
  inhibition at 10 µM: 107%
[19]
  inhibition at 10 µM: 101%
[20]
  inhibition at 10 µM: 115%
[21]
  inhibition at 10 µM: 107%
[22]
  inhibition at 10 µM: 87.8%
[23]
  inhibition at 10 µM: 95.8%
[24]
  inhibition at 10 µM: 100%
[25]
  inhibition at 10 µM: 94.3%
[26]
  inhibition at 10 µM: 99.3%
[27]
  inhibition at 10 µM: 104%
[28]
  inhibition at 10 µM: 99.4%
[29]
  inhibition at 10 µM: 107%
[30]
  inhibition at 10 µM: 92.6%
[31]
  inhibition at 10 µM: 109%
[32]
  inhibition at 10 µM: 104%
[33]
  inhibition at 10 µM: 86.6%
[34]
  inhibition at 10 µM: 111%
[35]
  inhibition at 10 µM: 93.7%
[36]
  inhibition: 46 ± 1.41%
